Measurements taken from patent US4394382A, “Dihydrobenzopyran compounds and pharmaceutical composition comprising said compounds” (Kowa Company, Ltd., priority 1980, dated 1983).
Structures can show the parent of a compound that is named as a salt.

Key:
[1] = test system: Femoral blood flow (femoral artery); assay: femoral blood flow in anesthetized dogs; type: in vivo, dog; conditions: 1 to 300 μg/kg, *: an increase of about 10% as low doses, and a decrease of about 20% at high doses
Method: Adult dogs were anesthetized with 30 mg/kg of pentobarbital administered intravenously and ventilated artificially. The effect of the compounds Ia and Ib on hemodynamic parameters was investigated. Drugs were used dissolved in 0.1 N hydrochloric acid and administered over the 1 to 300 μg/kg dose range.
Measured with an electromagnetic flowmeter probe placed on the femoral artery.

[2] = test system: potassium contracture, mesenteric artery; assay: isolated mesenteric artery, antagonistic action on potassium contracture (Magnus method); conditions: dog mesenteric artery, 50% inhibition of maximum reaction, reciprocal logarithm of molar concentration
Method: (§1) The activities of the compounds Ia and Ib on various isolated smooth muscles were examined by the Magnus method. Each of the test drugs was used in a concentration of 10^-9 to 4×10^-4 mole/1000 ml (M).
(§2) (6) Isolated mesenteric artery
(§3) Using an isolated mesenteric artery of a dog, the antagonistic action of the test drugs on (a) potassium contracture and (b) norepinephirine was examined.

[3] = test system: potassium contracture, saphenous vein; assay: isolated saphenous vein, action on potassium contracture (Magnus method); conditions: dog saphenous vein, 50% inhibition of maximum reaction, reciprocal logarithm of molar concentration
Method: as §1
(5) Isolated saphenous vein
Using an isolated saphenous vein of a dog, the action of the test drugs on potassium contracture was examined.

[4] = urine and electrolyte excretion, oral water load method; type: in vivo; conditions: rat, over 5 hours; for Amount of urine: average ± standard deviation
Method: Using rats, five per group, the amount of urine and the amount of electrolytes (sodium, potassium) excreted were measured over 5 hours after oral administration of each of the drugs by an oral water load method. Each of the test drugs was suspended in a 0.5% carboxymethyl cellulose solution and orally administered. Each of the numerical values given in the table is an average value ± standard deviation.

[5] = test system: potassium contracture, portal vein; assay: isolated portal vein, action on potassium contracture (Magnus method); conditions: dog portal vein, 50% inhibition of maximum reaction, reciprocal logarithm of molar concentration
Method: as §1
Using an isolated portal vein of a dog, the action of the test drugs on potassium contracture was examined.

[6] = target: T1, isoproterenol, atrium dextrum and atrium sinistrum (Cavia porcellus, UniProt H0W3H1); assay: isolated atrium cordis samples, antagonistic action on isoproterenol (Magnus method); conditions: guinea pig atrium, vs isoproterenol; reciprocal logarithm of molar concentration
T1 construct: Using the atrium dextrum and atrium sinistrum of a guinea pig; from tissue; host or cells: guinea pig right and left atria
T1 sequence (H0W3H1 1-470): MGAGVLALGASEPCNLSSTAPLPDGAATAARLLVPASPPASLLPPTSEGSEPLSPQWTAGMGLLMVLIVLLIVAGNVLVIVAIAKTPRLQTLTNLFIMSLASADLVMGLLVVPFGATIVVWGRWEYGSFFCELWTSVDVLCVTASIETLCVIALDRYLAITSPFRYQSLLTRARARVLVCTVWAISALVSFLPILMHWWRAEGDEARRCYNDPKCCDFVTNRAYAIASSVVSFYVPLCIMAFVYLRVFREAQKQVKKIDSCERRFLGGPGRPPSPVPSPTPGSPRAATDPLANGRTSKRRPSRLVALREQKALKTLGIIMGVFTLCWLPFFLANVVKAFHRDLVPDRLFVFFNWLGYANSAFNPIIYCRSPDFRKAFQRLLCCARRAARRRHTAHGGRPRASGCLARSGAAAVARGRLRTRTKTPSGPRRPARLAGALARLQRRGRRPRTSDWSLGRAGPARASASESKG
Method: (§4) Each of the test drugs was used in a concentration of 10^-9 to 4×10^-4 mole/1000 ml (M).
(1) Isolated atrium cordis samples
Using the atrium dextrum and atrium sinistrum of a guinea pig, the contractile force and rhythem were recorded, and the antagonistic action of the test drugs on isoproterenol was examined.

[7] = target: T2, isoproterenol, bronchus (Cavia porcellus, UniProt Q8K4Z4); assay: isolated bronchus sample, antagonistic action on isoproterenol (Magnus method); conditions: guinea pig bronchus, vs isoproterenol, reciprocal logarithm of molar concentration
T2 construct: Using the bronchus of a guinea pig; from tissue; host or cells: guinea pig bronchus
T2 sequence (Q8K4Z4 whole entry): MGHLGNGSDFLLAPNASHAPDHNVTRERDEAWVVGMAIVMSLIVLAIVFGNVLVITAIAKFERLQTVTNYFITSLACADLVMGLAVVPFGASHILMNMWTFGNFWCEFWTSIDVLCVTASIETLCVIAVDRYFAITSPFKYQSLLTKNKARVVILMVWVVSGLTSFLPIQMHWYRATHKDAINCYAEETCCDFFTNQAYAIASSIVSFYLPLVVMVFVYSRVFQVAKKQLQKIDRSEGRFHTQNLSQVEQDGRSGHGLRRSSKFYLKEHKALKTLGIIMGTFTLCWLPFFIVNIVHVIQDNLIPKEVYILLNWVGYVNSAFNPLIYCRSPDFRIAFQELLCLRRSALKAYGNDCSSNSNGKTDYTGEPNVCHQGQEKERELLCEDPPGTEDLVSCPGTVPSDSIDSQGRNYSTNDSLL
Method: as §4
(2) Isolated bronchus sample
Using the bronchus of a guinea pig, the antagonistic action of the test drugs on isoproterenol was examined.

[8] = test system: potassium contracture, left circumflex branch (coronary artery); assay: isolated coronary artery, action on potassium contracture (Magnus method); conditions: dog coronary artery, 50% inhibition of maximum reaction, reciprocal logarithm of molar concentration
Method: Each of the test drugs was used in a concentration of 10^-9 to 4×10^-4 mole/1000 ml (M). (3) Isolated coronary artery Using the left circumflex branch of a dog, the action of the test drugs on potassium contracture was examined.

[9] = test system: norepinephirine, mesenteric artery; assay: isolated mesenteric artery, antagonistic action on norepinephrine (Magnus method); conditions: dog mesenteric artery, vs norepinephrine; reciprocal logarithm of molar concentration
Method: as §1, §2, §3

[10] = test system: various isolated smooth muscles; assay: activities on various isolated smooth muscles, overall (Magnus method)
Method: as §1

[11] = 30 mg/kg, controls 22.5 ± 1.4 and (second set) 19.4 ± 4.0
[12] = 30 mg/kg, controls 0.18 ± 0.04 and (second set) 0.21 ± 0.08
[13] = 30 mg/kg, controls 0.53 ± 0.15 and (second set) 0.55 ± 0.14
[14] = 30 mg/kg, controls 3.08 ± 0.27 and (second set) 2.76 ± 0.83

(1) pA2 [6] | Compound | (8) Femoral blood flow* [1] | (6) (a) pD'2 [2] | (5) pD'2 [3] | Amount of urine [4, 11] [mL/kg] | K/Na [4, 12] | K excreted [4, 13] [mEq/kg] | Na excreted [4, 14] [mEq/kg] | (4) pD'2 [5] | (3) pD'2 [8] | (6) (b) pA2 [9] | further results
7.83 | CC(C)NCC(O)COc1cccc2c1OCC(CO[N+](=O)[O-])C2 (centres unmarked) [Compound Ib, 3,4-dihydro-8-[(2-hydroxy-3-isopropylamino)propoxy]-3-nitratomethyl-2H-benzopyran] | +~- | 5.6 | 6.2 | 32.6 ± 4.5 | 0.21 ± 0.08 | 0.83 ± 0.36 | 3.87 ± 0.64 | 6.2 | 5.7 | 6.4 | Kb ([7]; read-out: (2) pA2 (converted)): 5.13 nM
– | NS(=O)(=O)c1cc2c(cc1Cl)NC(C(Cl)Cl)NS2(=O)=O (centres unmarked) [Comparative drug II, trichlormethiazide, reference compound] | – | – | – | 34.8 ± 1.7 | 0.21 ± 0.04 | 1.12 ± 0.18 | 5.36 ± 0.42 | – | – | – | –
9.1 | CC(C)NCC(O)COc1cccc2c1OCC(O[N+](=O)[O-])C2 (centres unmarked) [Compound Ia, 3,4-dihydro-8-[(2-hydroxy-3-isopropylamino)propoxy]-3-nitrato-2H-benzopyran] | +~- | 5.2-5.3 | 5.8-6.0 | 31.1 ± 3.2 | 0.20 ± 0.05 | 0.91 ± 0.23 | 4.18 ± 0.56 | 6.3-6.4 | 6.2-6.3 | 7.0-7.1 | Amount of urine ([4]; 10 mg/kg, control 22.5 ± 1.4): 24.2 ± 2.2 mL/kg; K excreted ([4]; 10 mg/kg, control 0.53 ± 0.15): 0.61 ± 0.20 mEq/kg; Na excreted ([4]; 10 mg/kg, control 3.08 ± 0.27): 3.25 ± 0.18 mEq/kg; Amount of urine ([4]; 100 mg/kg, control 19.4 ± 4.0): 34.0 ± 3.7 mL/kg; K/Na ([4]; 100 mg/kg, control 0.21 ± 0.08): 0.30 ± 0.10; K excreted ([4]; 100 mg/kg, control 0.55 ± 0.14): 0.14 ± 0.45 mEq/kg; Na excreted ([4]; 100 mg/kg, control 2.76 ± 0.83): 3.69 ± 0.33 mEq/kg; K/Na ([4]; control 0.18 ± 0.04): 0.19 ± 0.07; β- and α-blocking activities [10]: strong β- and α-blocking activities; (2) pA2 [7]: 9.1-9.2
– | CC(C)NCC(O)COc1cccc2ccccc12 (centres unmarked) [Comparative drug I, propranolol hydrochloride, reference compound] | – | – | – | 27.8 ± 3.7 | 0.21 ± 0.04 | 0.70 ± 0.11 | 3.42 ± 0.28 | – | – | – | –
